Results reported in patent US8163509B2, “Biological markers predictive of anti-cancer response to insulin-like growth factor-1 receptor kinase inhibitors” (The Regents of the University of Colorado, A Body Corporate, priority 2008, dated 2012).
Like-named read-outs stand apart in the source and are kept apart here.

Key:
Test in all cases: SRB proliferation assay, 72 h
[1] = system: HCT116 CRC cell line; assay type: cell-based, human; details: for IC50: Homo sapiens, HCT-116
Description: (§1) Cell proliferation was evaluated by SRB following exposure to OSI-906 for 72 hours. Cells were plated at an optimized density in 96-well plates, incubated overnight at 37° C., and then exposed to a serial dilution of OSI-906. After 72 hours incubation, cells were fixed with trichloroacetic acid and an SRB was performed as described in materials and methods.
(§2) Cell Lines and Culture. […] human colon cancer cell lines, were obtained from American Type Culture Collection (Manassas, Va.). Cells were grown in RPMI medium supplemented with 10% fetal bovine serum, 1% non-essential amino acids, 1% penicillin/streptomycin and were maintained at 37° C. in an incubator under an atmosphere containing 5% CO2. The cells were routinely screened for the presence of mycoplasma (MycoAlert, Cambrex Bio Science, Baltimore, Md.) and were exposed to PQIP when they reached approximately 70% confluence.
Multiple clones from the same transfection were pooled and grown under puromycin selection.
Cytotoxicity and Combination Effects: HT29, HCT116, RKO, and LS513 CRC cell lines were exposed to 0-10 nM SN-38 (7-Ethyl-10-hydroxy-camptothecin), 0-10 μM Oxaliplatin, or 0-50 μM 5-Fluorouracil (5-FU) for 72 hours. HT29, HCT116, RKO, and LS513 CRC cell lines were exposed to PQIP in combination with SN-38, Oxaliplatin or 5-FU. In all combinations, cells were seeded in 96-well flat bottomed plates and left overnight. PQIP and chemotherapy were both added for 72 hours. The results of the combinations were analyzed by the Chou and Talalay method with Calcusyn (Biosoft, Ferguson, Mo.).
(§3) The CRC cell lines were treated with a range of concentrations of PQIP (from 0.05-5 μM) for 72 hours.
To characterize the potential functionality that the selected genes may play in the sensitivity or resistance to PQIP, resistant and sensitive CRC cell lines were stably transfected with specific shRNA, treated with increasing concentrations of PQIP and proliferation assays performed to observe, if when manipulated, these genes alter responsiveness (i.e. the S or R phenotype). […] Both of these transfected cell lines were assayed for proliferation as described above.
Therefore, we investigated the effect of PQIP in combination with standard chemotherapy for CRC. […] Cells were exposed to PQIP and chemotherapy (SN38, oxaliplatin, or 5-Fluorouracil) concurrently for 72 h and combinations were assessed using the SRB assay.
Cell Lines and Culture: Twenty-seven human colon cancer cell lines, were obtained from American Type Culture Collection (Manassas, Va.). The GEO cells were a generous gift from Dr. Fortunato Ciardiello (Cattedra di Oncologia Medica, Dipartimento Medico-Chirurgico di Internistica Clinica e Sperimentale “F Magrassi e A Lanzara,” Seconda Università degli Studi di Napoli, Naples). All cells except GEO were grown in RPMI medium supplemented with 10% fetal bovine serum, 1% non-essential amino acids, 1% penicillin/streptomycin and were maintained at 37° C. in an incubator under an atmosphere containing 5% CO2.

[2] = system: LS123 CRC cell line; assay type: cell-based; details: Homo sapiens
Description: as §1, with “FIG. 17: Results of cell proliferation assay on the panel of 27 CRC cell lines. Cell proliferation” for “Cell proliferation”
as §2, §3
(§4) Cell Lines and Culture: Twenty-seven human colon cancer cell lines, were obtained from American Type Culture Collection (Manassas, Va.). The GEO cells were a generous gift from Dr. Fortunato Ciardiello (Cattedra di Oncologia Medica, Dipartimento Medico-Chirurgico di Internistica Clinica e Sperimentale “F Magrassi e A Lanzara,” Seconda Università degli Studi di Napoli, Naples). All cells except GEO were grown in RPMI medium supplemented with 10% fetal bovine serum, 1% non-essential amino acids, 1% penicillin/streptomycin and were maintained at 37° C. in an incubator under an atmosphere containing 5% CO2. GEO cells were grown in DMEM/F12 supplemented with 10% fetal bovine serum, 1% non-essential amino acids, 1% penicillin/streptomycin. The cells were routinely screened for the presence of mycoplasma (MycoAlert, Cambrex Bio Science, Baltimore, Md.) and were exposed to OSI-906 when they reached approximately 70% confluence. OSI-906 was provided by OSI Pharmaceuticals, (Boulder, Colo.) and prepared as a 10 mM stock solution in DMSO.
(§5) Assessment of responsiveness of a panel of CRC cell lines to OSI-906. In order to assess CRC cell lines with differential sensitivity to OSI-906, a panel of 27 CRC cell lines were exposed to increasing concentrations of OSI-906 and proliferation was measured using the SRB assay as described previously (Pitts, T M, et al. Mol Cancer Ther 2009; 8(2):342-9). As depicted in FIG. 17 there was a wide range of sensitivity of the CRC cell lines to OSI-906, the majority of the cell lines failing to reach an IC50 up to 5 μmol/L, but a clear distinction could be made between the cell lines that were sensitive and the cell lines that were resistant.

[3] = system: SW948 CRC cell line; assay type: cell-based; details: Homo sapiens
Description: as §1, with “FIG. 17: Results of cell proliferation assay on the panel of 27 CRC cell lines. Cell proliferation” for “Cell proliferation”
as §2, §3, §4, §5

[4] = system: LS1034 CRC cell line; assay type: cell-based; details: Homo sapiens
Description: as §1, with “FIG. 17: Results of cell proliferation assay on the panel of 27 CRC cell lines. Cell proliferation” for “Cell proliferation”
as §2, §3, §4, §5

[5] = system: HCT15 CRC cell line; assay type: cell-based; details: Homo sapiens
Description: as §1, with “FIG. 17: Results of cell proliferation assay on the panel of 27 CRC cell lines. Cell proliferation” for “Cell proliferation”
as §2, §3, §4, §5

[6] = system: LoVo CRC cell line; assay type: cell-based; details: Homo sapiens
Description: as §1, with “FIG. 17: Results of cell proliferation assay on the panel of 27 CRC cell lines. Cell proliferation” for “Cell proliferation”
as §2, §3, §4, §5

[7] = system: SW1463 CRC cell line; assay type: cell-based; details: Homo sapiens
Description: as §1, with “FIG. 17: Results of cell proliferation assay on the panel of 27 CRC cell lines. Cell proliferation” for “Cell proliferation”
as §2, §3, §4, §5

[8] = system: LS180 CRC cell line; assay type: cell-based; details: Homo sapiens
Description: as §1, with “FIG. 17: Results of cell proliferation assay on the panel of 27 CRC cell lines. Cell proliferation” for “Cell proliferation”
as §2, §3, §4, §5

[9] = system: SW48 CRC cell line; assay type: cell-based; details: Homo sapiens
Description: as §1, with “FIG. 17: Results of cell proliferation assay on the panel of 27 CRC cell lines. Cell proliferation” for “Cell proliferation”
as §2, §3, §4, §5

[10] = system: CaCo2 CRC cell line; assay type: cell-based; details: Homo sapiens
Description: as §1, with “FIG. 17: Results of cell proliferation assay on the panel of 27 CRC cell lines. Cell proliferation” for “Cell proliferation”
as §2, §3, §4, §5

[11] = 72 hours, read-out: IC50, proliferation, OSI-906 (SRB)
[12] = 72 hours, 0.05-5 μM, read-out: IC50, growth inhibition by PQIP (SRB)

C[C@]1(O)C[C@@H](c2nc(-c3ccc4ccc(-c5ccccc5)nc4c3)c3c(N)nccn32)C1 [OSI-906, cis-3-[8-amino-1-(2-phenyl-quinolin-7-yl)-imidazo[1,5-a]pyrazin-3-yl]-1-methyl-cyclobutanol]
IC50 ([1]; HCT116, 72 hours, read-out: IC50, proliferation, OSI-906 (SRB)): > 5 µM | IC50 ([1]; HCT116, read-out: S/I/R to OSI-906): > 5 µM | IC50 ([1]; HCT116 stably transfected with MT2A shRNA, read-out: IC50, proliferation, OSI-906 (SRB) after MT2A shRNA knockdown): 5 µM | IC50 ([2]; LS-123, 72 hours, read-out: IC50, proliferation, OSI-906 (SRB)): > 5 µM | IC50 ([2]; LS-123, read-out: S/I/R to OSI-906): > 5 µM | IC50 [3, 11]: > 5 µM | IC50 ([3]; read-out: S/I/R to OSI-906): > 5 µM | IC50 ([4]; LS-1034, 72 hours, read-out: IC50, proliferation, OSI-906 (SRB)): ≤ 1.5 µM | IC50 ([4]; LS-1034, read-out: S/I/R to OSI-906): ≤ 1.5 µM | IC50 ([5]; HCT-15, 72 hours, read-out: IC50, proliferation, OSI-906 (SRB)): > 5 µM | IC50 ([5]; HCT-15, read-out: S/I/R to OSI-906): > 5 µM | IC50 [6, 11]: > 5 µM | IC50 ([6]; read-out: S/I/R to OSI-906): > 5 µM | IC50 [7, 11]: > 5 µM | IC50 ([7]; read-out: S/I/R to OSI-906): > 5 µM | IC50 [8, 11]: > 5 µM | IC50 ([8]; read-out: S/I/R to OSI-906): > 5 µM | IC50 [9, 11]: > 5 µM | IC50 ([9]; read-out: S/I/R to OSI-906): > 5 µM | IC50 ([10]; Caco-2, 72 hours, read-out: IC50, proliferation, OSI-906 (SRB)): ≤ 1.5 µM | IC50 ([10]; Caco-2, read-out: S/I/R to OSI-906): ≤ 1.5 µM

CN1CCN([C@H]2C[C@@H](c3nc(-c4ccc5ccc(-c6ccccc6)nc5c4)c4c(N)nccn43)C2)CC1 [PQIP, cis-3-[3-(4-Methyl-piperazin-1-yl)-cyclobutyl]1-(2-phenyl-quinolin-7-yl)-imidazo[1,5-a]pyrazin-8-ylamine]
combination index (CI) values, PQIP and chemotherapy ([1]; HCT116, PQIP with SN38, oxaliplatin or 5-Fluorouracil concurrently 72 h, nearly all combinations, Chou and Talalay): 0.6-1.4 | shift in sensitivity to PQIP after shRNA knockdown ([1]; HCT116 transfected with MT2A shRNA vs parental or scramble shRNA control): left shift in sensitivity | shift in sensitivity to PQIP after shRNA knockdown ([1]; HCT116 transfected with caldesmon shRNA vs parental or scramble shRNA control): no left shift in sensitivity | IC50 ([1]; HCT116, 72 hours, 0.05-5 μM, read-out: IC50, growth inhibition by PQIP (SRB)): > 5 µM | IC50 ([2]; LS-123, 72 hours, 0.05-5 μM, read-out: IC50, growth inhibition by PQIP (SRB)): > 5 µM | IC50 [3, 12]: > 5 µM | IC50 ([4]; LS-1034, 72 hours, 0.05-5 μM, read-out: IC50, growth inhibition by PQIP (SRB)): > 5 µM | IC50 ([5]; HCT-15, 72 hours, 0.05-5 μM, read-out: IC50, growth inhibition by PQIP (SRB)): > 5 µM | IC50 [6, 12]: > 5 µM | IC50 [7, 12]: > 5 µM | IC50 [8, 12]: > 5 µM | IC50 [9, 12]: > 5 µM | IC50 ([10]; Caco-2, 72 hours, 0.05-5 μM, read-out: IC50, growth inhibition by PQIP (SRB)): > 5 µM
